Experimental findings from paper PMC3257585 (Journal of Medicinal Chemistry, 2011) are described below.

Experiment [1] concerns the target PIM1 (Homo sapiens, UniProt P11309). The experiment can be described thus: Thermal stability shift assay. The class given is binding. The settings on record: Tm shift assay.
The target of experiment [2] is T1, FLT3 (Homo sapiens, UniProt P36888).
T1 sequence (P36888 27-993): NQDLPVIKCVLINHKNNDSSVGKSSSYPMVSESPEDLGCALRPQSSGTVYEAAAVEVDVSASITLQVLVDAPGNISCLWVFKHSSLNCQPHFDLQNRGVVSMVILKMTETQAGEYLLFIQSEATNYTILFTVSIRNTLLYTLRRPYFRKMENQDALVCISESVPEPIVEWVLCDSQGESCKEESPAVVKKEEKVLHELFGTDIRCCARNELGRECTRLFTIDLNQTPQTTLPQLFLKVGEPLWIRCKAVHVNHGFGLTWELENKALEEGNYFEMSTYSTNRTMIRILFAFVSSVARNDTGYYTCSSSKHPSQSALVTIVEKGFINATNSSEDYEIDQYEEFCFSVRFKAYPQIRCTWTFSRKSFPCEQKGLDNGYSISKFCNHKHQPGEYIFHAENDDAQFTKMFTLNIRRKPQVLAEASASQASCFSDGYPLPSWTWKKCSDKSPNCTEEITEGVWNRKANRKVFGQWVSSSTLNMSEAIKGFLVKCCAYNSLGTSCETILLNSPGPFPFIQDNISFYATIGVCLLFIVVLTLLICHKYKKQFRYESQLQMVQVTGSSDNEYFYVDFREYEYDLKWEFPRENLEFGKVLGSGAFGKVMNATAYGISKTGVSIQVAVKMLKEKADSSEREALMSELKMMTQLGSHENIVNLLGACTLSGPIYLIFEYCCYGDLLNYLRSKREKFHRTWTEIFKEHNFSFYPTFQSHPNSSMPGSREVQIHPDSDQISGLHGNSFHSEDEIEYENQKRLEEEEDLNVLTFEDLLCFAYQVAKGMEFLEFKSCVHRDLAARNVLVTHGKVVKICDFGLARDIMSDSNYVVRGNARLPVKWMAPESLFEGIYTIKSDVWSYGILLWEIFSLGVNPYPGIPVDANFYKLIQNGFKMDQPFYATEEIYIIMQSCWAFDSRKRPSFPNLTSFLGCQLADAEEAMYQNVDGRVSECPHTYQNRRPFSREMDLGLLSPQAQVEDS
The experiment is described as follows: In vitro kinase selectivity panel. The class given is biochemical.

The target in experiment [3] is cKIT (Homo sapiens, UniProt P10721). The experiment can be described thus: In vitro kinase selectivity panel. It counts as biochemical.
cKIT, sequence (P10721 26-976): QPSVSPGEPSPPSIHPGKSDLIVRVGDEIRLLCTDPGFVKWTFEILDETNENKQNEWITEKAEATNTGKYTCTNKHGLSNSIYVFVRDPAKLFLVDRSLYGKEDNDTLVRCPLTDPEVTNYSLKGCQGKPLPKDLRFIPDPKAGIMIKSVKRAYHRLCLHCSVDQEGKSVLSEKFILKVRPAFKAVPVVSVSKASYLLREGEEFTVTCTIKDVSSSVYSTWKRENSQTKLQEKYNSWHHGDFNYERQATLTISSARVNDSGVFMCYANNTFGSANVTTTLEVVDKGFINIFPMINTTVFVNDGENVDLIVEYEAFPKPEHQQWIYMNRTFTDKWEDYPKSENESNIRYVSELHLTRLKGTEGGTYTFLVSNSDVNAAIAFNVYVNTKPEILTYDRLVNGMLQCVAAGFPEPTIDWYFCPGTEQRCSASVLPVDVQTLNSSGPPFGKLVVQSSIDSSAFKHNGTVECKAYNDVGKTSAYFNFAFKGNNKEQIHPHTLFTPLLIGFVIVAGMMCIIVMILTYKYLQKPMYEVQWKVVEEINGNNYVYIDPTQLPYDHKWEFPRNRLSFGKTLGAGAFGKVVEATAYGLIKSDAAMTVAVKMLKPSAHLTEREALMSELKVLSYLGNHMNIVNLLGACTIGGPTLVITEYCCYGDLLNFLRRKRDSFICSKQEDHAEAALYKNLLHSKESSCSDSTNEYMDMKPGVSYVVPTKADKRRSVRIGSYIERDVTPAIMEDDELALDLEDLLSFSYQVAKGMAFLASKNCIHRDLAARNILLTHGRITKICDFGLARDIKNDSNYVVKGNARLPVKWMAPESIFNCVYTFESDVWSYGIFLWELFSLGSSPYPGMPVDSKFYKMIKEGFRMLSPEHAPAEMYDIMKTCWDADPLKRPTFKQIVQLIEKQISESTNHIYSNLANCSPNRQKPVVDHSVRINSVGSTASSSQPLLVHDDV
Experiment [4] concerns the target PDGFRa (Homo sapiens, UniProt P16234). The experiment is described as follows: In vitro kinase selectivity panel. It counts as biochemical.
The target of experiment [5] is PKA (Homo sapiens, UniProt P17612). The experiment can be described thus: In vitro kinase selectivity panel. It counts as biochemical.
For experiment [6], the target named is CaMK2 (Homo sapiens, UniProt Q13555). The experiment is described as follows: In vitro kinase selectivity panel. It counts as biochemical.
CaMK2, sequence (Q13555 whole entry): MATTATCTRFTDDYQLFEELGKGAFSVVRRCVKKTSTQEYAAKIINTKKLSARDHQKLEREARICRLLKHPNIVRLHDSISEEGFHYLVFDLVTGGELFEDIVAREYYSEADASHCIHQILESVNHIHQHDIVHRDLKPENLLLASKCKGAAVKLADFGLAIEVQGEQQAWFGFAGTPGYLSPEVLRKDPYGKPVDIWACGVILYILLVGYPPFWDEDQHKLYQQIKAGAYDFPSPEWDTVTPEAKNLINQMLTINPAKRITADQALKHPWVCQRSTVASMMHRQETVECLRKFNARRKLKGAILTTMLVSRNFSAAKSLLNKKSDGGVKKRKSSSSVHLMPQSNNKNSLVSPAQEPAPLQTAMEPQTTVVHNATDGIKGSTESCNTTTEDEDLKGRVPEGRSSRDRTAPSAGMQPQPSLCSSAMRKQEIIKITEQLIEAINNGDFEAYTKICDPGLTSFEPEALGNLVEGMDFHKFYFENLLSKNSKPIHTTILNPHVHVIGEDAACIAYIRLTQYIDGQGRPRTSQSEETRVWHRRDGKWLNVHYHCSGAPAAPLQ
The target of experiment [7] is BTKv2 (Homo sapiens, UniProt Q06187). The experiment can be described thus: In vitro kinase selectivity panel. The class given is biochemical.
BTKv2, sequence (Q06187 whole entry): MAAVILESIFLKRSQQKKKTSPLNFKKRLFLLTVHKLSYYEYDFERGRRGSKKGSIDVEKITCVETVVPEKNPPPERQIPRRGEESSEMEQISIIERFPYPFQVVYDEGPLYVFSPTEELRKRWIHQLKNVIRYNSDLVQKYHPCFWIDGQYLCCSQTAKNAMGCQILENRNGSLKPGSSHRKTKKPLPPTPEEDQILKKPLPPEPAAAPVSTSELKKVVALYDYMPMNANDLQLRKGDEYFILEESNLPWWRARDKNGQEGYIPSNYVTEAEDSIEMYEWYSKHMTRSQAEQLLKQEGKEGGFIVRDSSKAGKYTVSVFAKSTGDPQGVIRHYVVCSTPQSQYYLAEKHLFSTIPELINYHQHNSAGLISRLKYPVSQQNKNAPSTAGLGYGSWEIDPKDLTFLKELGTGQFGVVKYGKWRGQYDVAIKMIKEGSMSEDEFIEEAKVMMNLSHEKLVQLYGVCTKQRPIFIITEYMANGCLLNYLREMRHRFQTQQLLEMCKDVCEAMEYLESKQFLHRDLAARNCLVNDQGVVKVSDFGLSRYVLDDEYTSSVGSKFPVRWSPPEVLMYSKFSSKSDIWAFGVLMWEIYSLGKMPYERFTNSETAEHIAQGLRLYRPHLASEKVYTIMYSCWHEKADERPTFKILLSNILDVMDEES
Experiment [8] addresses T2, PDK1v2 (Homo sapiens, UniProt O15530).
T2 sequence (O15530 1-556): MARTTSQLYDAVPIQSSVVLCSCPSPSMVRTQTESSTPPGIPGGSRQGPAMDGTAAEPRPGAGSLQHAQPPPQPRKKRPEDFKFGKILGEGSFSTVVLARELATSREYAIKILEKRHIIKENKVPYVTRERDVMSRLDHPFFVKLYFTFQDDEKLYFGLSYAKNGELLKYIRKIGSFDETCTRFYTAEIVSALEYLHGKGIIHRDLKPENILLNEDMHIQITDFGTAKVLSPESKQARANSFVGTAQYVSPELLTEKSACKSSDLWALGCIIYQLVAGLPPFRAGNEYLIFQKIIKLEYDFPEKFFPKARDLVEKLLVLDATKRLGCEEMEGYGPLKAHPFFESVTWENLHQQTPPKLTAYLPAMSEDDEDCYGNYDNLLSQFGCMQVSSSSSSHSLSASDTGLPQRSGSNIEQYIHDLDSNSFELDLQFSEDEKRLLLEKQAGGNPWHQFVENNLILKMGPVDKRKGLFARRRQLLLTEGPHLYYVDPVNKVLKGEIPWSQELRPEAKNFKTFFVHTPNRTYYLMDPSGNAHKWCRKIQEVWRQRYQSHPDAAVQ
The experiment is described as follows: In vitro kinase selectivity panel. It counts as biochemical.

For experiment [9], the target named is HER4 (Homo sapiens, UniProt Q15303). The experiment can be described thus: In vitro kinase selectivity panel. The class given is biochemical.
HER4, sequence (Q15303 26-1308): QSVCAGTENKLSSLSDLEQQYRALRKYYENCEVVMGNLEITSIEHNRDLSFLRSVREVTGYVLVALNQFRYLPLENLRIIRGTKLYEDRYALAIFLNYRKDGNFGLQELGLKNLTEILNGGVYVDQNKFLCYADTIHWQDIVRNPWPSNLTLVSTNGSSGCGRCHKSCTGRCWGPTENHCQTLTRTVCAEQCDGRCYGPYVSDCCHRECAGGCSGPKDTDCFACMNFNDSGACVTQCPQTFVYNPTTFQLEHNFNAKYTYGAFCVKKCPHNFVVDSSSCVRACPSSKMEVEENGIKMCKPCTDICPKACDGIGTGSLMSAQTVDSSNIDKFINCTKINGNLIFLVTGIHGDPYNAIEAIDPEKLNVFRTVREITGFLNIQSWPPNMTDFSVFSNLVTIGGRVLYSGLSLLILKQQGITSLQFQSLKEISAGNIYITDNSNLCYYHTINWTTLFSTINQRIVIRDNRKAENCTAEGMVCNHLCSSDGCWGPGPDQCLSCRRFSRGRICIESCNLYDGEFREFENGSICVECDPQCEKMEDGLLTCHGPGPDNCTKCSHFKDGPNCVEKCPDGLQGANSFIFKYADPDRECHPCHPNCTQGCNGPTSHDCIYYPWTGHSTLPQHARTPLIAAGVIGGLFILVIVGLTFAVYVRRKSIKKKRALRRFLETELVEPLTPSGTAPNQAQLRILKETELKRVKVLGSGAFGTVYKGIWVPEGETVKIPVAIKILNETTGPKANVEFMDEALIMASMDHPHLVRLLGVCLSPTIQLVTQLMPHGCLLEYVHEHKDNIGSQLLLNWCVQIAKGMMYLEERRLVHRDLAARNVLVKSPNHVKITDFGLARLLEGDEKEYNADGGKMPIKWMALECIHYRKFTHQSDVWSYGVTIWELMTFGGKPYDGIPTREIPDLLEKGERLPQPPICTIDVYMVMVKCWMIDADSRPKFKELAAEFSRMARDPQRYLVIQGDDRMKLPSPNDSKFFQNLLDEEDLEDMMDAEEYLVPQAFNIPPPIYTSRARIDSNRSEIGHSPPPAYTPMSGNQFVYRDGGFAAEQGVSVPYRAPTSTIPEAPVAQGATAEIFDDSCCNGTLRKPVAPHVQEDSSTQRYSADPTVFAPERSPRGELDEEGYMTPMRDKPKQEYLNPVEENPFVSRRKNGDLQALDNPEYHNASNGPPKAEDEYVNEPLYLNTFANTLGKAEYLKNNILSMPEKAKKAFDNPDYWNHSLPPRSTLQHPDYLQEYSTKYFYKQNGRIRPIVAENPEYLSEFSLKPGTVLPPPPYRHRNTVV
The subject of experiment [10] is phosphorylation of 4E-BP1. The experiment can be described thus: Western blot of 4E-BP1 phosphorylation in MV4. It counts as cell-based, human. To be noted: MV4;11 cells, 0–10 μM. On the technique in general: A western blot detects proteins with antibodies after separation by electrophoresis.

PIM1, sequence (P11309 whole entry): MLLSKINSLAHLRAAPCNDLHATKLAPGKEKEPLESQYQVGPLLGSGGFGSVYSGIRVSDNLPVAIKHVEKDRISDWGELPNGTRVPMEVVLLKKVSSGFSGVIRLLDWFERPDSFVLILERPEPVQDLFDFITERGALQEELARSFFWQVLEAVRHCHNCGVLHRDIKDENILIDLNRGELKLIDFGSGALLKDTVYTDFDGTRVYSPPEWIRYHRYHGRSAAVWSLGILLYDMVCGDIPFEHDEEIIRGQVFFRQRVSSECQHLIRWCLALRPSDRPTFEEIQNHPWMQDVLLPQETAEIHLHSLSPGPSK
PDGFRa, sequence (P16234 24-1089): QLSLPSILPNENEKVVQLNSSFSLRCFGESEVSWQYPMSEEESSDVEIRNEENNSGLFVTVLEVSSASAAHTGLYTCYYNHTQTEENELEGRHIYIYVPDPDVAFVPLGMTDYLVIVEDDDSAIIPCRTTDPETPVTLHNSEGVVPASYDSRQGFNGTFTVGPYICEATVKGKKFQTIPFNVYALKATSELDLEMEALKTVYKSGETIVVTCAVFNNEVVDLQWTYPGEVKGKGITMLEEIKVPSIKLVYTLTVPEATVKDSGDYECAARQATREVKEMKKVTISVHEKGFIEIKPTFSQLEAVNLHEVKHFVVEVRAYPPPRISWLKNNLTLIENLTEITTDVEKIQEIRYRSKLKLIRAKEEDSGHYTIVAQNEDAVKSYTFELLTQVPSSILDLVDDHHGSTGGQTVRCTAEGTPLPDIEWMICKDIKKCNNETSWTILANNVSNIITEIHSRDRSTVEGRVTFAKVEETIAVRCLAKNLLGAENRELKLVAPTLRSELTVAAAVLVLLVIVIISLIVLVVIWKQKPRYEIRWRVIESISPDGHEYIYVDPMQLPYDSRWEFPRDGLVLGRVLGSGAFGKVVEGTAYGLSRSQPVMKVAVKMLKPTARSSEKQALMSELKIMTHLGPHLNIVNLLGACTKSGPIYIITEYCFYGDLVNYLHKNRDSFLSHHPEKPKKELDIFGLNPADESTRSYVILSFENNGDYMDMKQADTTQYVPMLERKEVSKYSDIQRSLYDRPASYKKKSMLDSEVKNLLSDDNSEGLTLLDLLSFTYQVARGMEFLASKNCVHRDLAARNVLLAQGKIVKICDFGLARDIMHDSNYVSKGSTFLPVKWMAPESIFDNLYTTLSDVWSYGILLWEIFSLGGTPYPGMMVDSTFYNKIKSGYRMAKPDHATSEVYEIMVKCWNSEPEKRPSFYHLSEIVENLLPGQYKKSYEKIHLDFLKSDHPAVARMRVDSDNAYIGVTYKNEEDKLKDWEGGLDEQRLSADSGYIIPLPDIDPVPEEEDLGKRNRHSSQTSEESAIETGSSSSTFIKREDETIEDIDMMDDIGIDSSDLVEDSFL

Take “(4RS)-N-[(7,8-Dichloro-3,3-dimethyl-1-oxo-2,3,4,9-tetrahydro-1H-pyrido[3,4-b]indol-4-yl)methyl]acetamide [Compound 24]”: the “activity against PIM1 (in words)” value in experiment [1] is “complete loss of activity”.
As for `CN1CCC2(CC1)NC(=O)c1c(c3ccc(Cl)c(Cl)c3n1C)C2C#N` (racemic) [Compound 17, (4′RS)-7′,8′-Dichloro-1,9′-dimethyl-1′-oxo-1′,2′,4′,9′-tetrahydrospiro[piperidine-4,3′-pyrido[3,4-b]indole]-4′-carbonitrile], the “activity against FLT3 (in words)” value in experiment [2] is recorded as “did not exhibit any significant activity”. Besides, the “activity against KIT (in words)” value in [3] was “did not exhibit any significant activity”. In experiment [1], the “activity against PIM1 (in words)” value is “highly potent inhibitors”. Also, in [4], the “activity against PDGFRα (in words)” value is on record as “did not exhibit any significant activity”.
On to `Cn1c2c(c3ccc(Cl)c(Cl)c31)C(C#N)C1(CCN(C(=O)OC(C)(C)C)CC1)NC2=O` (racemic) [Compound 19, (4′RS)-tert-Butyl 7′,8′-Dichloro-4′-cyano-9′-methyl-1′-oxo-1′,2′,4′,9′-tetrahydrospiro[piperidine-4,3′-pyrido[3,4-b]indole]-1-carboxylate], for which the “activity against PIM1 (in words)” value in [1] is recorded as “did not exhibit any inhibitory potency”.
In general, IC50 refers to the concentration needed to halve the response being measured. `Cn1c2c(c3ccc(Cl)c(Cl)c31)C(C#N)C1(CCNCC1)NC2=O` (racemic) [Compound 20, (4′RS)-7′,8′-Dichloro-9′-methyl-1′-oxo-1′,2′,4′,9′-tetrahydrospiro[piperidine-4,3′-pyrido[3,4-b]indole]-4′-carbonitrile]: the “activity against FLT3 (in words)” value in [2] was “did not exhibit any significant activity”. Moreover, the “activity against KIT (in words)” value in experiment [3] is recorded as “did not exhibit any significant activity”. Besides, the IC50 in experiment [5] was less than 0.1 µM; in [6], less than 0.1 µM; in [7] it was greater than 10 µM; in experiment [8], greater than 10 µM; in experiment [9], greater than 10 µM. Also, in [1], the “activity against PIM1 (in words)” value is listed as “highly potent inhibitors”. In addition, the “phosphorylation of 4E-BP1” value in experiment [10] is reported as “dose-dependent decrease”. In addition, the “activity against PDGFRα (in words)” value in experiment [4] is “did not exhibit any significant activity”.
As for `CCN1CCC2(CC1)NC(=O)c1c(c3ccc(Cl)c(Cl)c3n1C)C2C#N` (racemic) [Compound 18, (4′RS)-7′,8′-Dichloro-1-ethyl-9′-methyl-1′-oxo-1′,2′,4′,9′-tetrahydrospiro[piperidine-4,3′-pyrido[3,4-b]indole]-4′-carbonitrile], the “activity against PIM1 (in words)” value in experiment [1] was “highly potent inhibitors”.
